Converted amounts (≈) assume the structure as drawn.
What was measured:
N. gonorrhoeae WHO K = assay: Liquid broth MIC in Fastidious broth; conditions: Neisseria gonorrhoeae, read-out: Minimum Inhibitory Concentration, WHO K
N. gonorrhoeae WHO L = assay: Liquid broth MIC in Fastidious broth; conditions: Neisseria gonorrhoeae, read-out: Minimum Inhibitory Concentration, WHO L
N. gonorrhoeae WHO X = assay: Liquid broth MIC in Fastidious broth; conditions: Neisseria gonorrhoeae, read-out: Minimum Inhibitory Concentration, WHO X
N. gonorrhoeae FA1090 = assay: Liquid broth MIC in Fastidious broth; conditions: Neisseria gonorrhoeae, FA1090, read-out: Minimum Inhibitory Concentration, FA 1090
N. gonorrhoeae MS11 = assay: Liquid broth MIC in Fastidious broth; conditions: Neisseria gonorrhoeae, MS11, read-out: Minimum Inhibitory Concentration, MS11
[1] = test system: N. gonorrhoeae ATCC 49226; assay: Liquid broth MIC in Fastidious broth; conditions: Neisseria gonorrhoeae, ATCC49226, read-out: Minimum Inhibitory Concentration, ATCC 49226
N. gonorrhoeae CDC-0197 = assay: Liquid broth MIC in Fastidious broth; conditions: Neisseria gonorrhoeae, CDC0197, read-out: Minimum Inhibitory Concentration, CDC-0197
A. baumannii PBP1a = target: T1, A. baumannii PBP1a (Acinetobacter baumannii, UniProt A0ABX6CK30); assay: Bocillin-FL competition binding via gel filtration, A. baumannii PBP1a; conditions: competition binding assay using Bocillin-FL via gel filtration; read-out: A. baumannii PBP1a Potency
T1 sequence (A0ABX6CK30 1-851): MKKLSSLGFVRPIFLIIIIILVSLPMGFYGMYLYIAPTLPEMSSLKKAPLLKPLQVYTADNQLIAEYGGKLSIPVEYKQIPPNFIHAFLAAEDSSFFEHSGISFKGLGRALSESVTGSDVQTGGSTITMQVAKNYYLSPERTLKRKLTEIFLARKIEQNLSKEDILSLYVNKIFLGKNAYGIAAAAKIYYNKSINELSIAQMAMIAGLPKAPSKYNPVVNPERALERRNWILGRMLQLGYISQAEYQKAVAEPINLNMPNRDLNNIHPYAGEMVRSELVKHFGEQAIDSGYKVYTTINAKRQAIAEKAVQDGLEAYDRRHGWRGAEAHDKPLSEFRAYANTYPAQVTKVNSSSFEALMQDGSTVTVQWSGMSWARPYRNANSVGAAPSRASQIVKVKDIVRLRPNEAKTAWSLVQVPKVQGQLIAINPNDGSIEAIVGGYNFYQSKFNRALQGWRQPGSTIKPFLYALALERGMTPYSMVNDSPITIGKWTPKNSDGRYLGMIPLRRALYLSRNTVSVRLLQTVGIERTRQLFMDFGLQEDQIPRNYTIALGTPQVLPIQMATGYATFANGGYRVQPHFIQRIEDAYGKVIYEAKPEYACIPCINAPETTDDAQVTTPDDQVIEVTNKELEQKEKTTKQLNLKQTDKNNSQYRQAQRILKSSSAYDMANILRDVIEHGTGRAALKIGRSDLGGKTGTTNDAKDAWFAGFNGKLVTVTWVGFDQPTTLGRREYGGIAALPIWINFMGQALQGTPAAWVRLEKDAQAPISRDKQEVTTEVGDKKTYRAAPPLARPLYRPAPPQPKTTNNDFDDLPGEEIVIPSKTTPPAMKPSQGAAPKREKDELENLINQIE
Summary of the method: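 Enzyme was pre-incubated with rising inhibitor concentrations, then Bocillin-FL was added and incubated 15 minutes more. Bound probe was separated by gel filtration and fluorescence read. EC50 came from fitting fraction of PBP labelled versus inhibitor concentration to a Hill equation with ymin, ymax and n.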

N. gonorrhoeae WHO G = assay: Liquid broth MIC in Fastidious broth; conditions: Neisseria gonorrhoeae, read-out: Minimum Inhibitory Concentration, WHO G
N. gonorrhoeae WHO M = assay: Liquid broth MIC in Fastidious broth; conditions: Neisseria gonorrhoeae, read-out: Minimum Inhibitory Concentration, WHO M

| Structure (SMILES) | MIC (N. gonorrhoeae WHO K) [mg/L] | MIC (N. gonorrhoeae WHO L) [mg/L] | MIC (N. gonorrhoeae WHO X) [mg/L] | MIC (N. gonorrhoeae FA1090) [mg/L] | MIC (N. gonorrhoeae MS11) [mg/L] | MIC [1] [mg/L] | MIC (N. gonorrhoeae CDC-0197) [mg/L] | EC50 (A. baumannii PBP1a) [µM] | MIC (N. gonorrhoeae WHO G) [mg/L] | MIC (N. gonorrhoeae WHO M) [mg/L] |
| --- | --- | --- | --- | --- | --- | --- | --- | --- | --- | --- |
| O=C(NCCCN1CCN(C(=O)NC(C(=O)N[C@H]2Cc3ccc(F)c(C(=O)O)c3OB2O)c2cc(F)c(O)c(O)c2Cl)C(=O)C1=O)c1ccc(O)c(F)c1F (stereo partly drawn) [Example 306, (3R)-3-(2-(2-chloro-5-fluoro-3,4-dihydroxyphenyl)-2-(4-(3-(2,3-difluoro-4-hydroxybenzamido)propyl)-2,3-dioxopiperazine-1-carboxamido)acetamido)-7-fluoro-2-hydroxy-3,4-dihydro-2H-benzo[e][1,2]oxaborinine-8-carboxylic acid] | > 64 | > 64 | > 64 | 1 to 2 (≈ 1.26 to 2.51 µM) | 16 to 32 (≈ 20.1 to 40.2 µM) | 16 to 32 (≈ 20.1 to 40.2 µM) | > 64 | < 10 | 16 to 32 (≈ 20.1 to 40.2 µM) | 16 to 32 (≈ 20.1 to 40.2 µM) |
| O=C(NCCCN1CCN(C(=O)NC(C(=O)N[C@H]2Cc3ccc(F)c(C(=O)O)c3OB2O)c2cc(F)c(O)c(O)c2Cl)C(=O)C1=O)c1ccc(O)cc1O (stereo partly drawn) [Example 307, (3R)-3-(2-(2-chloro-5-fluoro-3,4-dihydroxyphenyl)-2-(4-(3-(2,4-dihydroxybenzamido)propyl)-2,3-dioxopiperazine-1-carboxamido)acetamido)-7-fluoro-2-hydroxy-3,4-dihydro-2H-benzo[e][1,2]oxaborinine-8-carboxylic acid] | > 64 | > 64 | > 64 | 1 to 2 (≈ 1.29 to 2.58 µM) | 16 to 32 (≈ 20.6 to 41.2 µM) | 16 to 32 (≈ 20.6 to 41.2 µM) | > 64 | < 10 | 16 to 32 (≈ 20.6 to 41.2 µM) | 16 to 32 (≈ 20.6 to 41.2 µM) |

Reference: patent US20240270762A1, “PENICILLIN-BINDING PROTEIN INHIBITORS” (priority 2021, published 2024)
